Data: US20070208073A1, “Compositions and methods for treating cardiovascular, cerebrovascular and other vascular disease patients” (priority 2006, published 2007)

Test: Clinical treatment of high risk vascular patients: cholesterol panel (LDL, HDL, triglycerides)
Assay type: in vivo
Conditions: for LDL lowering effects on adding adjunct: adjunct added to statin composition, Niacin 500 mg, ezetimibe 10 mg
Procedure: The protocol of the instant invention was developed for patients that are high risk for a life and/or limb threatening vascular event (MI, CVA, limb/part of limb loss, Aortic dissection/rupture, Renal infarction, etc.) such as DM type I and/or II, CAD, PVD, post MI, post CVA, Hypertriglyceridemia, Hypercholesterolemia, AAA, etc.
It is generally acknowledged that a goal for a DM/CAD patient is to have a LDL cholesterol level less than 70 mg/dL (National Cholesterol Education Program Interim Report Guidelines).
Generally, a patient should start with a low dose of one statin, the dose should then be titrated up to half a maximal dose (titrate means to start a patient at the lowest dose and increase the dose monthly based on having a patient that is less than 3× normal levels for the LFTs, the LDL cholesterol level is not to goal, and there is no positive change in signs, symptoms or studies to evaluate vascular function per disease state). At that point, the patient should be evaluated to see if the LDL cholesterol level is near the goal. If the patient is near the goal, adjuncts should be given to see if the LDL cholesterol level can be further lowered. If the patient is not near the LDL cholesterol goal after titration up to half a maximal dose, the dose of the initial statin should be reduced and a low dose second statin from the other group should be added to the regimen (i.e., if the initial statin is a hydrophilic statin, the second statin should be a lipophilic statin; and vice versa). The second statin level should be titrated up to a half maximal dose if upon taking the statin from the other group (i.e., the second statin), the LDL cholesterol level goal is still not attained. If one is near or at the LDL cholesterol level goal before or after titration of the second statin, the adjuncts can be added to further reduce the LDL cholesterol level.

Row | SMILES | LDL lowering effects on adding adjunct | HDL up (niacin 500 mg a day with the composition of statins) | boost to the HDL levels (niacin 500 mg to 750 mg a day, adult, with two-statin composition) [%]
1 | O=C(O)c1cccnc1 [niacin] | amplified | at least 10% | ≥ 10
2 | O=C1[C@H](CC[C@H](O)c2ccc(F)cc2)[C@@H](c2ccc(O)cc2)N1c1ccc(F)cc1 [ezetimibe] | amplified | – | –
